In patent US9040714B2 (MannKind Corporation, priority 2010, dated 2015):
Where a name gives a salt, the structure may show the parent alone.

Each molecule was assayed on IRE-1α-mediated XBP-1 splicing in human myeloma MM.1s cells (assay: Cellular EC50: endogenous XBP-1 splicing in myeloma cells by RT-PCR (DTT stress)). Conditions: MM1.S, average cellular EC50, XBP-1 splicing in myeloma cells, read-out: EC50_av.
Assay type: cell-based
Method: Human myeloma MM.1s cells are incubated with a compound for 1.25 hours before stressing the cells with 2 mM dithiothreitol (DTT). After an additional 45 minutes (2 hours total) with compound and DTT, the cells are harvested with TRIZOL® (a mono-phasic solution of phenol and guanidine isothiocyanate), and total RNA is prepared as directed by the manufacturer (Invitrogen). Human XBP-1 is amplified by RT-PCR with the following primers, which flank the 26 base unconventional intron excised by IRE-1α:
RT-PCR of unstressed (U) cells then generates the upper band. When cells are stressed (S) with the endoplasmic reticulum (ER) stressing agent DTT, IRE-1α is activated due to accumulating unfolded protein and the resulting RT-PCR, product is 26 base pairs shorter.
Compounds which pass specificity assays are assayed for cellular EC50 using endogenous XBP-1 splicing in myeloma cells. XBP-1 is regulated through the excision of a 26 nucleotide intron from the XBP-1 mRNA by the highly specific endoribonuclease activity of IRE-1α. […] This splicing event is used to measure IRE-1α activity on XBP-1 mRNA in cells and tissues.
Briefly, compounds are incubated in the presence or absence of an ER stress agent (e.g., DTT), and the ratio of XBP-1u (unspliced) to XBP-1 s (spliced) is quantified by RT-PCR. The ED50 is determined as the 50% XBP-1s to total XPB-1 levels.

SMILES | EC50 [µM]
CC1CCN(C(=O)c2ccc(-c3ccc4c(C=O)c(O)ccc4n3)cc2)CC1 [Compound 47] | > 10
CC1CCN(C(=O)c2ccc(-c3nc4ccc(O)c(C=O)c4s3)cc2)CC1 [Compound 57] | > 10
COC(=O)c1ccc(-c2nc3ccc(O)c(C=O)c3[nH]2)cc1 [Compound 59] | > 10
Cc1c(Br)c(=O)oc2c(C=O)c(O)ccc12 [Example 1] | < 10
CCN(CC)CCc1c(C)c2ccc(O)c(C=O)c2oc1=O [Example 4] | > 10
O=Cc1c(O)ccc2nc(-c3cccc(C(=O)N4CCOCC4)c3)ccc12 [Example 43] | < 10
COc1cc2c(=O)c(CCC(=O)N3CCN(C)CC3)c(C)oc2c(C=O)c1O [Example 94] | > 10
COCc1cc(=O)oc2c(C=O)c(O)cc(OC)c12 [Example 122] | < 10
C=CCc1c(C)c2c(OC)cc(O)c(C=O)c2oc1=O [Example 126] | < 10
COc1cc(O)c(C=O)c2oc(=O)c(C)c(CN3CCOCC3)c12 [Example 134] | < 10
COCCOc1cc(O)c(C=O)c2oc(=O)c(CC(=O)N3CCOCC3)c(C)c12 [Example 160] | < 10
COCCOc1cc(O)c(C=O)c2oc(=O)c(CC(=O)N3CCN(C)CC3)c(C)c12 [Example 161] | < 10
CCNC(=O)Cc1c(C)c2c(OCCOC)cc(O)c(C=O)c2oc1=O [Example 162] | < 10
COCCOc1cc(O)c(C=O)c2oc(=O)c(CC(=O)NCCN3CCOCC3)c(C)c12 [Example 163] | < 10
COCCOc1cc(O)c(C=O)c2oc(=O)c(C)c(C)c12 [Example 165] | < 10
COc1cc(O)c(C=O)c2oc(=O)c(CC(=O)N3CCN(C)CC3)c(C)c12 [Example 178] | < 10
COCCOc1cc2c(C)c(CC(=O)NCCN3CCOCC3)c(=O)oc2c(C=O)c1O [Example 187] | < 10
COCCOc1cc2c(C)c(CC(=O)N3CCN(C)CC3)c(=O)oc2c(C=O)c1O [Example 189] | < 10
COc1cc(O)c(C=O)c2oc(=O)c(CCC(=O)NCCN(C)C)c(C)c12 [Example 195] | < 10
COCCNC(=O)CCc1c(C)c2cc(OCCN3CCOCC3)c(O)c(C=O)c2oc1=O [Example 202] | > 10
CCNC(=O)CCc1c(C)c2cc(OCCN3CCOCC3)c(O)c(C=O)c2oc1=O [Example 204] | > 10
COc1cc2c(=O)c(CC(=O)N3CCOCC3)c(C)oc2c(C=O)c1O [Example 207] | > 10
COc1cc2c(=O)c(CC(=O)N3CCN(C)CC3)c(C)oc2c(C=O)c1O [Example 208] | > 10

Further lines, results first:

EC50 [µM] | SMILES
> 10 | O=Cc1c(O)ccc2nc(-c3cccc(C(=O)N4CCCC4)c3)ccc12
< 10 | O=Cc1c(O)ccc2nc(-c3ccc(C(=O)N4CCCC4)cc3)ccc12 [Compound 48]
< 10 | CC(=O)NC1CCN(c2ccc3c(C=O)c(O)ccc3n2)C1 (stereo not drawn) [Compound 51]
> 10 | O=Cc1c(O)ccc2nc(-c3ccc(C(=O)NCCN4CCOCC4)cc3)[nH]c12 [Compound 60]
< 10 | Cc1c(-c2ccc(C(=O)N3CCN(C)CC3)cc2)c(=O)oc2c(C=O)c(O)ccc12 [Example 2]
< 10 | Cc1c(-c2cccc(C(=O)N3CCOCC3)c2)c(=O)oc2c(C=O)c(O)ccc12 [Example 13]
< 10 | Cc1c(CCC(=O)N2CCN(C)CC2)c(=O)oc2c(C=O)c(O)ccc12 [Example 15]
< 10 | Cc1c(-c2ccc(C(=O)N3CCC(C)CC3)cc2)c(=O)oc2c(C=O)c(O)ccc12 [Example 19]
< 10 | Cc1cc(=O)oc2c(C=O)c(O)c(F)cc12 [Example 23, hydrochloride]
> 10 | CN1CCN(C2CCN(c3nc4ccc(O)c(C=O)c4s3)C2)CC1 (stereo not drawn) [Example 54]
< 10 | Cc1c(CCC(=O)N2CCOCC2)c(=O)oc2c(C=O)c(O)ccc12 [Example 69]
> 10 | Cc1oc2c(C=O)c(O)ccc2c(=O)c1CCC(=O)N1CCN(C)CC1 [Example 88]
> 10 | COc1cc2c(=O)c(CCC(=O)NCCN3CCOCC3)c(C)oc2c(C=O)c1O [Example 93]
< 10 | COCCc1c(C)c2c(O)cc(O)c(C=O)c2oc1=O [Example 123]
< 10 | COCCc1c(C)c2c(OC)cc(O)c(C=O)c2oc1=O [Example 124]
< 10 | COCCc1c(C)c2cc(OC)c(O)c(C=O)c2oc1=O [Example 125]
< 10 | COc1cc(O)c(C=O)c2oc(=O)c(C)c(CN(C)C)c12 [Example 135]
> 10 | CCOC(=O)CCc1c(C)c2cc(N(C)C(C)=O)c(O)c(C=O)c2oc1=O [Example 144]

EC50 [µM] | SMILES
< 10 | COCCOCCc1c(C)c2c(OC)cc(O)c(C=O)c2oc1=O [Example 145]
< 10 | CCOC(=O)Cc1c(C)c2c(OCCOC)cc(O)c(C=O)c2oc1=O [Example 158]
< 10 | COCCNC(=O)Cc1c(C)c2c(OCCOC)cc(O)c(C=O)c2oc1=O [Example 159]
> 10 | COCCOc1cc(O)c(C=O)c2oc(=O)c(CC(=O)NCCN(C)C)c(C)c12 [Example 164]
< 10 | COc1cc2c(C)c(CC(=O)N3CCOCC3)c(=O)oc2c(C=O)c1O [Example 167]
< 10 | CCNC(=O)CCc1c(C)c2cc(OCCOC)c(O)c(C=O)c2oc1=O [Example 183]
< 10 | COCCOc1cc2c(C)c(CC(=O)N3CCOCC3)c(=O)oc2c(C=O)c1O [Example 188]
< 10 | COCCNC(=O)Cc1c(C)c2cc(OCCOC)c(O)c(C=O)c2oc1=O [Example 190]
< 10 | CCNC(=O)Cc1c(C)c2cc(OCCOC)c(O)c(C=O)c2oc1=O [Example 191]
< 10 | Cc1c(C)c2cc(OCCN3CCOCC3)c(O)c(C=O)c2oc1=O [Example 203]
10 | COCCNC(=O)Cc1c(C)c2cc(OCCN3CCOCC3)c(O)c(C=O)c2oc1=O [Example 205]
10 | Cc1c(CC(=O)N2CCOCC2)c(=O)oc2c(C=O)c(O)c(OCCN3CCOCC3)cc12 [Example 206]
< 10 | CCNC(=O)Cc1c(C)oc2c(C=O)c(O)c(OC)cc2c1=O [Example 209]
> 10 | COc1cc2c(=O)c(CC(=O)NCCN3CCOCC3)c(C)oc2c(C=O)c1O [Example 210]
> 10 | COc1cc2c(=O)c(CC(=O)NCCN(C)C)c(C)oc2c(C=O)c1O [Example 211]
> 10 | COCCNC(=O)CCc1c(C)oc2c(C=O)c(O)c(OC)cc2c1=O [Example 212]
> 10 | CCNC(=O)CCc1c(C)oc2c(C=O)c(O)c(OC)cc2c1=O [Example 213]

Same assay, conditions: MM1.S, read-out: EC50_av

SMILES | EC50 [µM]
O=Cc1c(O)ccc2nc(N3CCC(NC(=O)CN4CCOCC4)C3)ccc12 (stereo not drawn) [Compound 50] | < 10
O=Cc1c(O)ccc2nc(-c3ccc(C(=O)O)cc3)[nH]c12 [Compound 58] | > 10
CN1CCN(C(=O)c2ccc(-c3nc4ccc(O)c(C=O)c4[nH]3)cc2)CC1 [Compound 62] | > 10
COc1cc2c(C)c(Br)c(=O)oc2c(C=O)c1O [Example 6] | < 10
O=Cc1c(O)ccc2cc(-c3ccc(Br)cc3)c(=O)oc12 [Example 7] | > 10
Cc1c(Br)c(=O)oc2c(C=O)c(O)c(F)cc12 [Example 9] | < 10
Cc1c(-c2ccc(C(=O)N3CCCC3)cc2)c(=O)oc2c(C=O)c(O)ccc12 [Example 18] | < 10
Cc1c(-c2cccc(C(=O)N3CCCC3)c2)c(=O)oc2c(C=O)c(O)ccc12 [Example 21] | > 10
